In patent US12357652B2, “Formulations of phosphoramidate derivatives of nucleoside drugs” (priority 2015, dated 2025):

What was measured:
[1] = Stability of NUC-3373 aqueous infusion solution in 250 ml 0.9% saline bags; assay type: physicochemical
Experimental: The stability of the aqueous infusion solution was also evaluated using three different doses of NUC-3373 (1,000 mg, 2,000 mg and 3,000 mg) diluted in 250 ml 0.9% saline bags at two storage conditions (5° C. and 20° C.).

[2] = versus 5-FU; cited from earlier work
[3] = Stability of 100 mg/ml NUC-3373 surfactant solution; assay type: physicochemical
Experimental: The successful development of the Diluent Solution to enable preparation of the NUC-1031 aqueous formulation prompted its development for an aqueous formulation of NUC-3373. An aqueous NUC-3373 formulation was developed by adding 6.7 ml of a 250 mg/ml solution of NUC-3373 in 80% DMA:20% 0.9% saline to 10 ml diluent solution to generate a 100 mg/ml NUC-3373 surfactant solution (see Table 4), prior to subsequent dilution into an infusion bag.

cancer models = conditions: versus 5-fluorouracil; cited from earlier work
[4] = 1,000 mg NUC-3373 in 250 ml 0.9% saline infusion bag, 0 hours, 5° C.
[5] = 1,000 mg NUC-3373 in 250 ml 0.9% saline infusion bag, 0 hours, 20° C.
[6] = 1,000 mg NUC-3373 in 250 ml 0.9% saline infusion bag, 8 hours, 5° C.
[7] = 1,000 mg NUC-3373 in 250 ml 0.9% saline infusion bag, 8 hours, 20° C.
[8] = 1,000 mg NUC-3373 in 250 ml 0.9% saline infusion bag, 24 hours, 5° C.
[9] = 1,000 mg NUC-3373 in 250 ml 0.9% saline infusion bag, 24 hours, 20° C.
[10] = 1,000 mg NUC-3373 in 250 ml 0.9% saline infusion bag, 48 hours, 5° C.
[11] = 1,000 mg NUC-3373 in 250 ml 0.9% saline infusion bag, 48 hours, 20° C.
[12] = 2,000 mg NUC-3373 in 250 ml 0.9% saline infusion bag, 0 hours, 5° C.
[13] = 2,000 mg NUC-3373 in 250 ml 0.9% saline infusion bag, 0 hours, 20° C.
[14] = 2,000 mg NUC-3373 in 250 ml 0.9% saline infusion bag, 8 hours, 5° C.
[15] = 2,000 mg NUC-3373 in 250 ml 0.9% saline infusion bag, 8 hours, 20° C.
[16] = 2,000 mg NUC-3373 in 250 ml 0.9% saline infusion bag, 24 hours, 5° C.
[17] = 2,000 mg NUC-3373 in 250 ml 0.9% saline infusion bag, 24 hours, 20° C.
[18] = 2,000 mg NUC-3373 in 250 ml 0.9% saline infusion bag, 48 hours, 5° C.
[19] = 2,000 mg NUC-3373 in 250 ml 0.9% saline infusion bag, 48 hours, 20° C.
[20] = 3,000 mg NUC-3373 in 250 ml 0.9% saline infusion bag, 0 hours, 5° C.
[21] = 3,000 mg NUC-3373 in 250 ml 0.9% saline infusion bag, 0 hours, 20° C.
[22] = 3,000 mg NUC-3373 in 250 ml 0.9% saline infusion bag, 8 hours, 5° C.
[23] = 3,000 mg NUC-3373 in 250 ml 0.9% saline infusion bag, 8 hours, 20° C.
[24] = 3,000 mg NUC-3373 in 250 ml 0.9% saline infusion bag, 24 hours, 5° C.
[25] = 3,000 mg NUC-3373 in 250 ml 0.9% saline infusion bag, 24 hours, 20° C.
[26] = 3,000 mg NUC-3373 in 250 ml 0.9% saline infusion bag, 48 hours, 5° C.
[27] = 3,000 mg NUC-3373 in 250 ml 0.9% saline infusion bag, 48 hours, 20° C.

C[C@H](NP(=O)(OC[C@H]1O[C@@H](n2cc(F)c(=O)[nH]c2=O)CC1O)Oc1cccc2ccccc12)C(=O)OCc1ccccc1 (stereo partly drawn) [NUC-3373, 5-fluoro-2′-deoxyuridine-5′-O-[1-naphthyl (benzoxy-L-alaninyl)] phosphate]
Assay content NUC-3373 [1, 4]: 3.7 mg/mL | Osmolarity [1, 4]: 457 mosm/L H20 | Purity [1, 4]: 96.2 % area | Total NUC-3373 [1, 4]: 960.9 mg | pH [1, 4]: 5.5 | Assay content NUC-3373 [1, 5]: 3.9 mg/mL | Osmolarity [1, 5]: 462 mosm/L H20 | Purity [1, 5]: 96.1 % area | Total NUC-3373 [1, 5]: 1012.8 mg | pH [1, 5]: 5.6 | Assay content NUC-3373 [1, 6]: 3.6 mg/mL | Osmolarity [1, 6]: 450 mosm/L H20 | Purity [1, 6]: 96.1 % area | Total NUC-3373 [1, 6]: 934.9 mg | pH [1, 6]: 5.6 | Assay content NUC-3373 [1, 7]: 3.7 mg/mL | Osmolarity [1, 7]: 459 mosm/L H20 | Purity [1, 7]: 96.1 % area | Total NUC-3373 [1, 7]: 960.9 mg | pH [1, 7]: 5.5 | Assay content NUC-3373 [1, 8]: 3.6 mg/mL | Osmolarity [1, 8]: 456 mosm/L H20 | Purity [1, 8]: 96.1 % area | Total NUC-3373 [1, 8]: 934.9 mg | pH [1, 8]: 5.6 | Assay content NUC-3373 [1, 9]: 3.7 mg/mL | Osmolarity [1, 9]: 462 mosm/L H20 | Purity [1, 9]: 96.1 % area | Total NUC-3373 [1, 9]: 960.9 mg | pH [1, 9]: 5.8 | Assay content NUC-3373 [1, 10]: 3.6 mg/mL | Osmolarity [1, 10]: 451 mosm/L H20 | Purity [1, 10]: 96.2 % area | Total NUC-3373 [1, 10]: 934.9 mg | pH [1, 10]: 5.5 | Assay content NUC-3373 [1, 11]: 3.8 mg/mL | Osmolarity [1, 11]: 455 mosm/L H20 | Purity [1, 11]: 96.1 % area | Total NUC-3373 [1, 11]: 986.9 mg | pH [1, 11]: 5.5 | Assay content NUC-3373 [1, 12]: 7.2 mg/mL | Osmolarity [1, 12]: 639 mosm/L H20 | Purity [1, 12]: 96.1 % area | Total NUC-3373 [1, 12]: 1946 mg | pH [1, 12]: 5.5 | Assay content NUC-3373 [1, 13]: 7.4 mg/mL | Osmolarity [1, 13]: 646 mosm/L H20 | Purity [1, 13]: 96.1 % area | Total NUC-3373 [1, 13]: 2000 mg | pH [1, 13]: 5.5 | Assay content NUC-3373 [1, 14]: 7.0 mg/mL | Osmolarity [1, 14]: 637 mosm/L H20 | Purity [1, 14]: 96.2 % area | Total NUC-3373 [1, 14]: 1892 mg | pH [1, 14]: 5.5 | Assay content NUC-3373 [1, 15]: 7.5 mg/mL | Osmolarity [1, 15]: 633 mosm/L H20 | Purity [1, 15]: 96.1 % area | Total NUC-3373 [1, 15]: 2027 mg | pH [1, 15]: 5.5 | Assay content NUC-3373 [1, 16]: 6.9 mg/mL | Osmolarity [1, 16]: 638 mosm/L H20 | Purity [1, 16]: 96.1 % area | Total NUC-3373 [1, 16]: 1865 mg | pH [1, 16]: 5.5 | Assay content NUC-3373 [1, 17]: 7.2 mg/mL | Osmolarity [1, 17]: 639 mosm/L H20 | Purity [1, 17]: 96.1 % area | Total NUC-3373 [1, 17]: 1946 mg | pH [1, 17]: 5.5 | Assay content NUC-3373 [1, 18]: 7.0 mg/mL | Osmolarity [1, 18]: 635 mosm/L H20 | Purity [1, 18]: 96.1 % area | Total NUC-3373 [1, 18]: 1892 mg | pH [1, 18]: 5.4 | Assay content NUC-3373 [1, 19]: 7.1 mg/mL | Osmolarity [1, 19]: 632 mosm/L H20 | Purity [1, 19]: 96.1 % area | Total NUC-3373 [1, 19]: 1919 mg | pH [1, 19]: 5.4 | Assay content NUC-3373 [1, 20]: 10.2 mg/mL | Osmolarity [1, 20]: 831 mosm/L H20 | Purity [1, 20]: 96.1 % area | Total NUC-3373 [1, 20]: 2857 mg | pH [1, 20]: 5.5 | Assay content NUC-3373 [1, 21]: 10.4 mg/mL | Osmolarity [1, 21]: 818 mosm/L H20 | Purity [1, 21]: 96.1 % area | Total NUC-3373 [1, 21]: 2913 mg | pH [1, 21]: 5.5 | Assay content NUC-3373 [1, 22]: 10.4 mg/mL | Osmolarity [1, 22]: 823 mosm/L H20 | Purity [1, 22]: 96.2 % area | Total NUC-3373 [1, 22]: 2913 mg | pH [1, 22]: 5.5 | Assay content NUC-3373 [1, 23]: 10.5 mg/mL | Osmolarity [1, 23]: 812 mosm/L H20 | Purity [1, 23]: 96.1 % area | Total NUC-3373 [1, 23]: 2941 mg | pH [1, 23]: 5.5 | Assay content NUC-3373 [1, 24]: 10.1 mg/mL | Osmolarity [1, 24]: 825 mosm/L H20 | Purity [1, 24]: 96.1 % area | Total NUC-3373 [1, 24]: 2829 mg | pH [1, 24]: 5.5 | Assay content NUC-3373 [1, 25]: 10.4 mg/mL | Osmolarity [1, 25]: 817 mosm/L H20 | Purity [1, 25]: 96.1 % area | Total NUC-3373 [1, 25]: 2913 mg | pH [1, 25]: 5.5 | Assay content NUC-3373 [1, 26]: 10.0 mg/mL | Osmolarity [1, 26]: 821 mosm/L H20 | Purity [1, 26]: 96.2 % area | Total NUC-3373 [1, 26]: 2801 mg | pH [1, 26]: 5.6 | Assay content NUC-3373 [1, 27]: 10.1 mg/mL | Osmolarity [1, 27]: 812 mosm/L H20 | Purity [1, 27]: 96.1 % area | Total NUC-3373 [1, 27]: 2829 mg | pH [1, 27]: 5.4 | Stability ([1]; aqueous infusion solutions at all dose strengths (1,000 mg, 2,000 mg, 3,000 mg in 250 ml 0.9% saline), up to 48 hours at 5° C. and 20° C.): stable | Tolerability [2]: significantly better tolerated than 5-FU | Assay content ([3]; 0 hours, 5° C.): 105.5 mg/mL | Purity ([3]; 0 hours, 5° C.): 96.1 % area | pH ([3]; 0 hours, 5° C.): 7.8 | Assay content ([3]; 0 hours, 20° C.): 104.8 mg/mL | Purity ([3]; 0 hours, 20° C.): 96.2 % area | pH ([3]; 0 hours, 20° C.): 7.8 | Assay content ([3]; 8 hours, 5° C.): 102.5 mg/mL | Purity ([3]; 8 hours, 5° C.): 96.2 % area | pH ([3]; 8 hours, 5° C.): 7.9 | Assay content ([3]; 8 hours, 20° C.): 100.7 mg/mL | Purity ([3]; 8 hours, 20° C.): 96.1 % area | pH ([3]; 8 hours, 20° C.): 7.8 | Assay content ([3]; 24 hours, 5° C.): 103.7 mg/mL | Purity ([3]; 24 hours, 5° C.): 96.1 % area | pH ([3]; 24 hours, 5° C.): 7.9 | Assay content ([3]; 24 hours, 20° C.): 99.1 mg/mL | Purity ([3]; 24 hours, 20° C.): 96.1 % area | pH ([3]; 24 hours, 20° C.): 7.8 | Assay content ([3]; 48 hours, 5° C.): 102.4 mg/mL | Purity ([3]; 48 hours, 5° C.): 96.1 % area | pH ([3]; 48 hours, 5° C.): 7.9 | Assay content ([3]; 48 hours, 20° C.): 99.4 mg/mL | Purity ([3]; 48 hours, 20° C.): 96.2 % area | pH ([3]; 48 hours, 20° C.): 7.9 | Stability ([3]; for 48 hours at 5° C. and 20° C.): stable | Activity in vitro (cancer models): outstanding and far superior to the results obtained with 5-fluorouracil
